Measurements published in patent EP0799174B1, “BIOCIDAL ALCOHOLS, THEIR PRODUCTION AND THEIR USE” (SCHÜLKE & MAYR GMBH, priority 1994, dated 1996).

How the values were obtained:
Type in all cases: cell-based
Ps. aeruginosa = experiment: Quantitative surface test according to DGHM, alcoholic surface disinfectant; conditions: additive (0.05% for single substances) in ethanol 25.0 % / 1-propanol 35.0 % formulation, germs deposited after approx. 20 minutes
Description: Standard formulation: • ethanol (MEK denatured) 25.0 % • 1-propanol 35.0 % • perfume 0.02 % • benzotriazole 0.001 % • Marlipal 013/70 0.1% (isotridecanpolyethyleneglycol-(7)-ether = C13 oxo alcohol + 7 mol ethylene oxide) • active ingredient additive x% • dem. water to 100 Test germ: Ps. aeruginosa Test method:
Quantitative surface test according to DGHM (Deutsche Gesellschaft für Hygiene and Microbiology = German Association for Hygiene and Microbiology). In order to exclude the effectiveness of the readily volatile alcohol components (ethanol, 1-propanol), the preparations were deposited onto the surfaces and the germs were deposited after approx. 20 minutes. Test surfaces: PVC and OP tiles Data as reduction factors (log stages)

[1] = tested on: Germ mixture of Staphylococcus aureus, Staphylococcus epidermis, Escherichia coli, Klebsiella pneumoniae, Enterobacter gergoviae, Pseudomonas aeruginosa …; experiment: Preservative test: weekly loading of the sample with germ suspension; conditions: aromatic alcohol 0.5% in sulfosuccinate 12.0% / betaine 3.0% formulation
Description: Standard formulation: • sulfosuccinate 12.0% • betaine 3.0% • aromatic alcohol 0.5% • re-fatting agent • skin care additives • thickener • dem. water to 100 Test germs: Germ mixture of Staphylococcus aureus, Staphylococcus epidermis, Escherichia coli, Klebsiella pneumoniae, Enterobacter gergoviae, Pseudomonas aeruginosa, Pseudomonas fluorescens, Pseudomonas putida, Aspergillus niger, Penicillium funiculosum, Candida albicans; Total germ count 10^8-10^9/ml. Test method: weekly loading of the sample with germ suspension; smear onto CS and Sabouraud agar. See also K.-H. Diehl, P. Oltmanns, J. Ramsbotham, Seife, Öle, Fette, Wachse 118 (1992) 546.
Data expressed semi-qualitatively: • - no growth < 10^2 CFU/g (CFU = colony-forming units) • + slight growth approx. 10^3 CFU/g • ++ moderate growth approx. 10^4-10^5 CFU/g • +++ heavy growth > 10^5 CFU/g

[2] = tested on: Staphylococcus aureus ATCC 6538; experiment: MIC values, water-soluble (inhibition titre, dilution series in CSL); conditions: standard formulation: Rewopal MPG 40 25.0 g, aromatic alcohol 10 mmol, dem. water to 100 g, pH 7.0
Description: (§1) Standard formulation: • Rewopal MPG 40 25.0 g • aromatic alcohol 10 mmol • dem.* water to 100 g • lactic acid for adjusting the pH value to 7.0 q.s.
(§2) In sterile test tubes, 5 ml each of the dilutions of the disinfectant in WSH (water of standardized hardness) are mixed with 5 ml double-concentrated casein peptone soybean flour peptone solution (CSL) or CSL and deactivating substances.
(§3) To determine the bacteriostatic action on Staphylococcus aureus and Proteus mirabilis the tubes are inoculated by adding 0.1 ml of a CSL culture diluted 1:10 with CSL and incubated for 24 h at 37°C.
(§4) To test the fungistatic action, 0.1 ml of an undiluted CSL culture of Candida albicans which has been incubated at 37°C for 72 h is used in each case. Evaluation takes place after 72 h at 37°C.
(§5) The highest dilution of the preparation in CSL or CSL and deactivating substances that still suppresses growth of the test germs after […] incubation serves as the measure of the multiplication-inhibiting action (inhibition titre).
(§6) In the case of the disinhibition tests, the culture media are to be adjusted to a pH value of 7.0 ± 0.2 according to the state of the disinfectant.
(§7) Standard formulation: • aromatic alcohol 5.0 % • Brij 58 5.0 % • 1,3-butanediol to 100 • Test germs: see above • Test method: see above

[3] = tested on: Candida albicans ATCC 10231; experiment: as above; conditions: standard formulation: Rewopal MPG 40 25.0 g, aromatic alcohol 10 mmol, dem. water to 100 g, pH 7.0
Description: as §1, §2, §3, §4, §5, §6, §7

[4] = tested on: Proteus vulgaris NCTC 4635; experiment: as above; conditions: standard formulation: Rewopal MPG 40 25.0 g, aromatic alcohol 10 mmol, dem. water to 100 g, pH 7.0
[5] = tested on: Aspergillus niger ATCC 6275; experiment: as above; conditions: standard formulation: Rewopal MPG 40 25.0 g, aromatic alcohol 10 mmol, dem. water to 100 g, pH 7.0
[6] = tested on: Penicillium funiculosum ATCC 36839; experiment: as above; conditions: standard formulation: Rewopal MPG 40 25.0 g, aromatic alcohol 10 mmol, dem. water to 100 g, pH 7.0
[7] = tested on: Mycobacterium terrae ATCC 15755; experiment: Germ carrier experiment with standard cotton; design: key: E: individual colonies; M: several colonies; +: weak growth; ++: moderate growth; +++: heavy growth; ++++: very heavy growth; ∞: lawn growth; conditions: Rewopal MPG 40 25.0%, aromatic alcohol 2.0 %, dem. water to 100
Description: • Rewopal MPG 40 25.0% • aromatic alcohol 2.0 % • dem. water to 100
The bacteria are elutriated with 5 ml CSL from a 24 h-old (37°C) culture onto CSA plates measuring approx. 9 cm in diameter, the suspension being diluted with CSL if necessary. The number of CFU/ml is to be determined using surface culture. It should be > 10^9/ml.
The sterilized and dried germ carriers are introduced into the bacterial suspension and left in it for 15 minutes, during which they are turned over twice.
A number (4) of contaminated, thoroughly impregnated germ carriers, corresponding to the proposed removal times - 15, 30, 60 and 120 minutes - is placed in a small dish and 10 ml of the disinfectant solution to be tested in WSH are poured over them. Air bubbles are to be removed by repeated turning of the germ carriers.
After the corresponding action times, the germ carriers are to be removed from the disinfectant solution, and after rinsing twice in each case for 1 min in 10 ml ML solution (see Appendix) to which the deactivating substances were optionally added, the germ carriers are placed onto the surface of a Löwenstein-Jensen nutrient medium with tweezers and moved backwards and forwards 3 to 4 times using light pressure. After inoculating the nutrient medium surface the small cloth is to remain lying directly above the condensed water level of the nutrient medium.
Germ carriers pre-treated in the same way, but kept in WSH for 120 minutes instead of in disinfectant solution are to be inoculated as a control. The inoculated tubes are incubated at 37°C for 3 weeks.

## CC(C)(CO)Cc1ccccc1 [Alcohol 2, 2,2-dimethyl-3-phenyl-1-propanol]
Ps. aeruginosa; PVC, 30'
  reduction factors (log stages): >6.0 log stages
Ps. aeruginosa; PVC, 60'
  reduction factors (log stages): >5.4 log stages
Ps. aeruginosa; PVC, 240'
  reduction factors (log stages): >6.5 log stages
Ps. aeruginosa; Tiles, 30'
  reduction factors (log stages): 4.1 log stages
Ps. aeruginosa; Tiles, 60'
  reduction factors (log stages): 4.9 log stages
Ps. aeruginosa; Tiles, 240'
  reduction factors (log stages): >5.8 log stages
[1]; 1st week
  growth, 1st week: - (no growth < 10^2 CFU/g)
[1]; 2nd week
  growth, 2nd week: - (no growth < 10^2 CFU/g)
[1]; 3rd week
  growth, 3rd week: - (no growth < 10^2 CFU/g)
[1]; 4th week
  growth, 4th week: - (no growth < 10^2 CFU/g)
[1]; 5th week
  growth, 5th week: - (no growth < 10^2 CFU/g)
[2]
  MIC (minimum inhibiting concentration) S. aureus: 313 μmol/100 ml test solution
[3]
  MIC (minimum inhibiting concentration) C. albicans: 313 μmol/100 ml test solution
[4]
  MIC (minimum inhibiting concentration) P. vulgaris: 313 μmol/100 ml test solution
[5]
  MIC (minimum inhibiting concentration) A. niger: 313 μmol/100 ml test solution
[6]
  MIC (minimum inhibiting concentration) P. funi.: 313 μmol/100 ml test solution
[7]; 15'
  growth of M. terrae after action time 15': +++
[7]; 30'
  growth of M. terrae after action time 30': ++
[7]; 60'
  growth of M. terrae after action time 60': +
[7]; 120'
  growth of M. terrae after action time 120': M
